Laboratory results as given in patent US12714700B2 (priority 2017, dated 2026).

Tested on: ob/ob mice
Details: cohort 2 (HFD conditioning, then 50 mg/kg), relative to untreated controls

N#Cc1ccc2nnc(C(=O)N3CCC(c4cccc(F)c4C(F)(F)F)CC3)n2c1 [Compound 2, 3-(4-(3-fluoro-2-(trifluoromethyl)phenyl)piperidine-1-carbonyl)-[1,2,4]triazolo[4,3-a]pyridine-6-carbonitrile]
NASH fibrosis scores: reduction | amount of bridging fibrosis: decrease
